Source: paper PMC8591608, “DNDI-6148: A Novel Benzoxaborole Preclinical Candidate for the Treatment of Visceral Leishmaniasis” (Journal of Medicinal Chemistry, 2021)
Like-named read-outs stand apart in the source and are kept apart here.

Key:
[1] = tested on: L. infantum; assay: Intramacrophage L. infantum assay; format: cell-based; conditions: Leishmania infantum
Procedure, shortened: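 Ex vivo splenic amastigotes from infected hamsters used to infect primary macrophages (3 × 10^4 cells/4.5 × 10^5 parasites per well) in RPMI-1640 with 5% inactivated FCS. After 5 days' exposure, Giemsa-stained burdens counted microscopically versus untreated infected (100%) and uninfected (0%) controls; EC50 from 8-point 2-fold dilutions.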

[2] = MRC5 cytotoxicity assay; format: cell-based; conditions: human, MRC5SV2 cells (human embryonic lung fibroblasts); Table 5; geometric mean of at least two independent tests
Procedure, shortened: (§1)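 PMM (harvested 2 days after 2% potato starch peritoneal stimulation) or MRC5SV2 human lung fibroblasts at 3 × 10^4 cells/mL were exposed to compound for three days at 37 °C, 5% CO2. Viability was read by resazurin fluorescence (λex 550, λem 590 nm) after 4 h, as % growth reduction vs untreated controls.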

[3] = tested on: L. donovani; assay: L. donovani hamster model of VL; format: in vivo
Method: (§2) L. infantum (MHOM/MA/67/ITMAP263) and L. donovani (MHOM/ET/67/L82) were maintained in the golden (Syrian) hamster (Mesocricetus auratus). Ex vivo amastigotes were collected from the spleen of an infected donor hamster using two centrifugation purification steps: 230g for 10 min, keeping the supernatant layer, and 4100g for 30 min, keeping the pellet. The spleen parasite burden was assessed using the Stauber technique.[25] For in vitro assays, the inoculum was prepared in RPMI-1640 medium, supplemented with 200 mM L-glutamine, 16.5 mM NaHCO3, and 5% inactivated fetal calf serum. For the in vivo model, an infection inoculum containing 2 × 10^7 amastigotes/100 μL was prepared in phosphate-buffered saline (PBS).
Female golden hamsters for the in vivo model of visceral leishmaniasis were purchased from Janvier, France (body weight 80–100 g). This study using laboratory rodents was carried out in strict accordance with all mandatory guidelines (EU directives, including the Revised Directive 2010/63/EU on the protection of Animals used for Scientific Purposes that came into force on 01/01/2013, and the declaration of Helsinki in its latest version) and was approved by the ethical committee of the University of Antwerp, Belgium (UA-ECD 2011-74). Female golden hamsters for the pharmacokinetic study were purchased from Vital River, Beijing, China. This study was conducted following institutional review and in accordance with institutional and national guidelines at WuXi AppTec (the Institutional Animal Care and Use Committee (IACUC)). Balb/c mice for the in vivo model of visceral leishmaniasis (LSHTM) were purchased from Charles River, U.K., and related studies were conducted under license PPL 70/8427 from the U.K. Home Office.
Female golden hamsters were randomly allocated to experimental groups of six animals each, based on body weight. At the start of the experiment (Day 0), each animal was infected with L. infantum or L. donovani inoculum, delivered by intracardial injection. Six hamsters were assigned to the vehicle-treated, infected control group. Six hamsters were assigned per group (1 group/compound) for the evaluation of compound and miltefosine. At Day 21 postinfection (21 dpi), all animals in each group were dosed orally for five (or ten) consecutive days (21–25 dpi): compound was dosed at 25–50 mg/kg b.i.d.; miltefosine was dosed at 40 mg/kg q.d. At Day 35 (10 days after the final oral dose), all animals were euthanized and autopsies were conducted. The study evaluated the following parameters. • 1. Adverse effects: all animals were observed daily for the occurrence/presence of adverse effects. • 2. Body weight: all animals were weighed twice per week to monitor general health. • 3. Parasite burden: amastigote burdens in each target organ (liver, spleen, and bone marrow) were determined at Day 35. The organs of individual animals were weighed (except for bone marrow). Impression smears were stained with Giemsa for microscopic examination of the total amastigote burden, defined as the mean number of amastigotes per cell multiplied by the number of cells counted (minimum 500 nuclei); the results were expressed as a percentage reduction in amastigote burden compared to vehicle-treated, infected control animals.

[4] = 14-day exploratory toxicology study in rats; conditions: 14-day study
[5] = Hamster oral pharmacokinetic study; format: in vivo, golden Syrian hamsters; conditions: female, golden Syrian, plasma, single p.o. dose 50 mg/kg, read-out: AUC0–24 after single p.o. dose of 50 mg/kg
Method: […] The K2-EDTA anticoagulant was added to blood samples collected from 0.25 to 36 h, which were processed to plasma and stabilized with phosphoric acid (1% final) before analysis by LC-MS/MS. PK parameters were calculated using WinNonlin software (version 6.3).

[6] = PMM cytotoxicity assay; format: cell-based; conditions: mouse, primary peritoneal mouse macrophages (PMM)
Procedure, shortened: as §1

[7] = Liver microsome stability, hamster; format: in vitro ADME; conditions: golden (Syrian), hamster liver microsomes, pH 7.4, Table 5, read-out: HamLM Clint
Method: Tests were performed by WuXi AppTec, China. Test compounds (at 1 μM) or positive controls (testosterone, propafenone, and diclofenac) were incubated at 37 °C with liver microsomes from Balb/c mouse, golden (Syrian) hamster, Sprague-Dawley rat, Beagle dog, or human in the presence of a NADPH regenerating system and phosphate buffer (100 mM, pH 7.4) at 0.4 or 0.8 mg/mL microsomal protein. The samples were removed at time intervals from 0 to 60, 90, or 120 min and immediately mixed with cold methanol supplemented or not with acid (3% formic acid) and centrifuged prior to analysis by LC-MS/MS using tolbutamide or propranolol as internal standards.

[8] = tested on: L. donovani; assay: Intramacrophage L. donovani assay; format: cell-based; conditions: Leishmania donovani
Method: as §2
The assay was performed in sterile 96-well microtiter plates, each well containing 10 μL of the compound dilution and 190 μL of the PMM/amastigote inoculum (3 × 10^4 cells/4.5 × 10^5 parasites per well). Parasite multiplication was compared to untreated infected controls (100% growth) and uninfected controls (0% growth). After five-day incubation, total parasite burdens were microscopically assessed after staining the cells with a 10% Giemsa solution. The results were expressed as a percentage reduction in parasite burden compared to untreated control wells. EC50 values were determined using an extended dose range (2-fold compound dilutions, 8-point concentration curve). Miltefosine was used as the reference drug.[26] For selected compounds, this assay format was also run using the L. donovani inoculum.

[9] = Liver microsome stability, human; format: in vitro ADME; conditions: for microsomal CLint at 1 μM: human liver microsomes, pH 7.4, Table 5, read-out: HLM Clint
Procedure, shortened: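 Compounds at 1 μM incubated at 37 °C with liver microsomes (Balb/c mouse, golden Syrian hamster, Beagle dog, human) plus NADPH regenerating system in 100 mM phosphate buffer pH 7.4, 0.4 or 0.8 mg/mL protein. Samples taken from 0 up to 60, 90 or 120 min, quenched in cold methanol and analysed by LC-MS/MS.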

[10] = Table 5, geometric mean of at least two independent tests, read-out: intramacrophage L. infantum amastigote EC50
[11] = Table 2, geometric mean of at least three independent assays
[12] = Table 5, geometric mean of at least two independent tests
[13] = Table 6, geometric mean of at least two independent tests

## Cc1c(C(=O)Nc2ccc3c(c2)B(O)OC3)nnn1-c1ccccn1 [Compound 23, N-(1-Hydroxy-1,3-dihydrobenzo[c][1,2]oxaborol-6-yl)-5-methyl-1-(pyridin-2-yl)-1H-1,2,3-triazole-4-carboxamide]
[1]; Table 2, geometric mean of at least three independent assays, read-out: intramacrophage L. infantum EC50
  EC50: 1800 nM
[1]; [10]
  EC50: 1800 nM
[2]
  CC50 at 3 days: > 64000 nM
[3]; 25 mg/kg BID for 10 days
  reduction in parasite burden, bone marrow, 10 days: 99.6%
  reduction in parasite burden, liver, 10 days: 99.9%
  reduction in parasite burden, spleen, 10 days: 99.8%
[3]; 50 mg/kg BID for 5 days
  reduction in parasite burden, bone marrow, 5 days: 83.4%
  reduction in parasite burden, liver, 5 days: 99.3%
  reduction in parasite burden, spleen, 5 days: 98.6%
[4]; male and female Sprague-Dawley rats
  no adverse effect limit: 50 mg/kg/day
[5]
  AUC(0-t): 120000 ng·h/mL
[6]; [11]
  EC50 at 3 days: > 64000 nM
[6]; [12]
  CC50 at 3 days: > 64000 nM
[7]
  microsomal CLint at 1 μM: < 11.9 µL/min/mg
[8]; [11]
  EC50: 1400 nM
[9]; Table 10
  microsome Clint: <11.9 μL/min/mg protein
[9]
  microsomal CLint at 1 μM: < 11.9 µL/min/mg

## Cc1c(-c2ccccn2)coc1C(=O)Nc1ccc2c(c1)B(O)OC2 [Compound 28, N-(1-Hydroxy-1,3-dihydrobenzo[c][1,2]oxaborol-6-yl)-3-methyl-4-(pyridin-2-yl)furan-2-carboxamide]
[1]; [10]
  EC50: 500 nM
[2]
  CC50 at 72 h: 18000 nM
[3]; 25 mg/kg BID for 5 days
  reduction in parasite burden, bone marrow, 5 days: 94.5%
  reduction in parasite burden, liver, 5 days: 95.9%
  reduction in parasite burden, spleen, 5 days: 95.9%
[3]; 50 mg/kg BID for 5 days
  reduction in parasite burden, bone marrow, 5 days: 100%
  reduction in parasite burden, liver, 5 days: 99.9%
  reduction in parasite burden, spleen, 5 days: 100%
[4]; rats, daily dosing of 25 mg/kg
  toxicity finding: significant multiorgan toxicity
[5]
  AUC(0-t): 21000 ng·h/mL
[6]; [12]
  CC50 at 72 h: 49000 nM
[6]; [13]
  CC50 at 3 days: 54000 nM
[7]
  microsomal CLint at 2 h, 1 µM: 40 µL/min/mg
[8]; [13]
  EC50: 400 nM
[9]
  microsomal CLint at 1 μM: < 11.9 µL/min/mg
